ChEMBL document CHEMBL1159229, “In vitro anticomplementary activity of constituents from Morinda morindoides” (J Nat Prod, 1995)

Legend:
[1] = organism: Cavia porcellus; test: Activation of guinea pig classical complement system assessed as hemolysis of sensitized sheep erythrocytes at 1000 uM
[2] = organism: Homo sapiens; test: Activation of human plasma alternative complement system assessed as hemolysis of non-sensitized rabbit erythrocytes at 1000 uM; type: cell-free
[3] = organism: Cavia porcellus; test: Inhibition of guinea pig classical complement system assessed as hemolysis of sensitized sheep erythrocytes at 1000 uM
[4] = organism: Homo sapiens; test: Inhibition of human plasma alternative complement system assessed as hemolysis of non-sensitized rabbit erythrocytes at 1000 uM; type: cell-free
[5] = organism: Cavia porcellus; test: Inhibition of guinea pig classical complement system assessed as hemolysis of sensitized sheep erythrocytes

Question: Which results are given for `O=c1cc(-c2ccc(O)cc2)oc2cc(O[C@@H]3O[C@H](CO)[C@@H](O)[C@H](O)[C@H]3O)cc(O)c12`?
Answer: Activity [1]: 2.34%; Activity [2]: 2.4%

Question: How did the Activity [1] turn out when `COc1cc(-c2cc(=O)c3c(O)cc(O)cc3o2)ccc1O` was run?
Answer: 9%

Question: What about the Activity [2] of the same molecule?
Answer: 59%

Question: Which inhibition [3] does the source give for `C[C@@H]1O[C@@H](Oc2c(-c3ccc(O)cc3)oc3cc(O)cc(O)c3c2=O)[C@H](O)[C@H](O)[C@H]1O` here?
Answer: 5.6%

Question: And the inhibition [4]?
Answer: 6.2%

Question: With `COc1cc(-c2cc(=O)c3c(O)cc(O[C@@H]4O[C@H](CO)[C@@H](O)[C@H](O)[C@H]4O[C@@H]4O[C@@H](C)[C@H](O)[C@@H](O)[C@H]4O)cc3o2)ccc1O` as the molecule, how does the Activity [1] read?
Answer: 4.6%

Question: What about the Activity [2] of the same molecule?
Answer: 11.2%

Question: Which results are given for `C[C@@H]1O[C@@H](Oc2c(-c3ccc(O)c(O)c3)oc3cc(O)cc(O)c3c2=O)[C@H](O)[C@H](O)[C@H]1O`?
Answer: inhibition [3]: 56.2%; inhibition [4]: 13.5%; Activity [5]: Dose-dependent effect

Question: With `O=c1cc(-c2ccc(O)c(O)c2)oc2cc(O[C@@H]3O[C@H](CO)[C@@H](O)[C@H](O)[C@H]3O)cc(O)c12` as the molecule, how does the inhibition [3] read?
Answer: 25.2%

Question: And the inhibition [4]?
Answer: 2%

Question: `COc1cc(O)c2c(=O)c(O)c(-c3ccc(OC)c(O)c3)oc2c1` was tested. Which inhibition [3] did it give?
Answer: 24.3%

Question: And the Activity [2]?
Answer: 13.7%

Question: Which results are given for `C[C@@H]1O[C@@H](OC[C@H]2O[C@@H](Oc3c(-c4ccc(O)cc4)oc4cc(O)cc(O)c4c3=O)[C@H](O)[C@@H](O)[C@@H]2O)[C@H](O)[C@H](O)[C@H]1O`?
Answer: inhibition [3]: 19.2%; Activity [2]: 18.4%

Question: For `O=c1c(O)c(-c2ccc(O)c(O)c2)oc2cc(O)cc(O)c12`, which inhibition [3] is on record?
Answer: 52.5%

Question: And the inhibition [4]?
Answer: 24%

Question: And the Activity [5]?
Answer: Dose-dependent effect

Question: How did the inhibition [3] turn out when `C[C@@H]1O[C@@H](OC[C@H]2O[C@@H](Oc3c(-c4ccc(O)c(O)c4)oc4cc(O)cc(O)c4c3=O)[C@H](O)[C@@H](O)[C@@H]2O)[C@H](O)[C@H](O)[C@H]1O` was run?
Answer: 54.4%

Question: What about the inhibition [4] of the same molecule?
Answer: 18%

Question: And the Activity [5]?
Answer: Dose-dependent effect

Question: With `O=C(/C=C/c1ccc(O)c(O)c1)O[C@H](Cc1ccc(O)c(O)c1)C(=O)O` as the molecule, how does the inhibition [3] read?
Answer: 93.3%

Question: What about the inhibition [4] of the same molecule?
Answer: 67.8%

Question: What about the Activity [5] of the same molecule?
Answer: Dose-dependent effect
